Reference: patent publication US10941187B2 (The United States of America, as represented by the …, priority 2001, dated 2021)
“Also recorded” adds a separate entry of the source. Ends that are not written are not given here.

Key:
RIN 1048-36 cells = assay: Insulin secretion in vitro in RIN 1048-36 cells; assay type: cell-based, rat; conditions: peptide 1×10−8 M, 5 mM glucose, 1 h; compared with GLP-1 and exendin-4
Description: Thereafter, they were preincubated for 2 periods of 30 min each with glucose-free buffer (containing mM: 140 NaCl, 5 KCl, 1 NaPO4, 1 MgSO4, 2 CaCl, 20 HEPES buffer (pH 7.4), and 0.1% bovine serum albumin) in a 37° C. humidified incubator. […] After 1 h the medium was removed and stored at −80° C. prior to quantification of insulin levels by EIA (Crystal Chem, Chicago Ill.), and the cells were lysed with HCl (300 μl, 0.1 M, 20 min, RT) for measurement of total protein using the Bradford method (Bio-Rad, Richmond, Calif.) with bovine γ-globulin as a standard.

PC12 cells [1] = assay: Inhibition of GLP-1, exendin-4 and NGF induced neurite outgrowth in PC12 cells; assay type: cell-based, rat; conditions: 48 h; PD98059 50 μM, LY294002 40 μM, H89 20 μM, or exendin (9-39) with exendin-4
Description: NGF at 50 ng/ml and forskolin (PKA activator) (20 μM) were used as positive controls in these treatments.

Aβ1-40 [2] = assay: Aβ1-40 in whole brain homogenates after i.c.v. infusion in control mice; assay type: in vivo, mouse; conditions: 2 μg NGF i.c.v., 48 h, p<0.01
Description: Lean db+/db+ control male mice (n=24) were anaesthetized with 50 mg/kg pentobarbitone and placed in a stereotaxic surgical frame with mouse adaptor (David Kopf Instruments, Tujunga, Calif.) using temporal bone cup holders. […] After 48 h all animals were sacrificed by cervical dislocation, the brains removed and rapidly frozen in liquid nitrogen. Brains were pulverized and stored at −80° C. prior to assaying for Aβ levels.
Equivalent volumes of conditioned media and whole brain homogenate were assayed for Aβ1-40 using a sandwich ELISA (Suzuki et. al., 1994). The monoclonal antibody BAN50 (raised against Aβ1-16) was used as the capture antibody for all species of Aβ (Aβ1-40 and Aβ1-42), and the monoclonal antibody BA27 was used to specifically detect Aβ1-40 levels. Levels of Aβ1-40 were expressed in pM concentrations for conditioned media samples and finol/g for the mouse brain homogenates, as deduced from the appropriate standard curve run in parallel with the assay.

synaptophysin = assay: Synaptophysin expression in PC12 cells (Western blot); assay type: cell-based, rat; conditions: PC12 cell lysates
Description: The synaptophysin monoclonal antibody (Oncogene Research Products, San Diego Calif.), which stains neurosecretory vesicles of PC12 cells, was used. The membranes were blocked with 20 mM Tris, 500 mM NaCl pH 7.4, 1% (w/v) casein (BioRad, San Diego Calif.) at 37° C. for 1 hour. Primary antibody was diluted in block and incubated with the proteins overnight at 4° C. The membrane was vigorously washed with 20 mM Tris pH 7.4, 150 mM NaCl and 0.05% Tween-20 (TBST), three times for 15 minutes at room temperature. The peroxidase-linked secondary antibody in block was incubated with the membrane for 2 hours at room temperature. Peroxidase-linked anti-mouse IgM (Chemicon, Tenecula, Calif.) was used as the secondary antibody against synaptophysin. Excess antibody was washed off with three vigorous washes in TBST prior to incubation in ECL Plus (Amersham, Philadelphia, Pa.) for 5 minutes. The membrane was subsequently exposed to photographic film.

Aβ1-40 [3] = assay: Aβ1-40 sandwich ELISA of PC12 conditioned media; assay type: cell-based, rat; conditions: PC12 cells, relative to control cells
PC12 cells [4] = assay: Neurite outgrowth in PC12 cells; assay type: cell-based, rat; conditions: day 3
Description: Three dishes for each treatment condition were prepared. Treatments began 24 hours after seeding, once cells were well attached.
PC12 cells were grown on 60 mm dishes as above and cultured for four days. During this time neurite outgrowth was quantified daily. Five random fields of cells were evaluated per dish and the proportion of neurite-bearing cells was determined. Approximately 100 cells per field were scored for neurites equal to or greater in length than that of the cell body. A cell was only scored once, although it may have had more than one process per cell.

[5] = tested on: β-amyloid precursor protein (βAPP); assay: Western immunoblot of βAPP (cell lysates) and sAPP (conditioned media) in PC12 cells; conditions: day 3, relative to untreated
PC12 cells [6] = assay: Bromodeoxyuridine incorporation in PC12 cells; conditions: day 1; GLP-1 33 μg/ml, NGF 50 ng/ml
Description: Immunocytochemistry with an anti-BrdU antibody after labeling was used to identify cells that were actively replicating DNA at the time of labeling. […] 10 μM BrdU was added to the culture medium for 6 hours prior to fixing in 4% paraformaldehyde, to label cellular DNA. The remainder of the method was followed according to the proliferation kit (Roche, Indianapolis, Ind.). […] BrdU incorporation was quantitated on days 1, 2 and 3 of treatment. Three dishes for each treatment condition were counted and expressed as the percentage of labeled cells relative to the total number of cells.

[7] = tested on: Zucker fatty (fa/fa) and Wistar rats; assay: Blood glucose and insulin after subcutaneous injection; assay type: in vivo, rat; conditions: 24 nmol/kg s.c.
Description: Six-month old male Zucker fa/fa rats (Harlan, Indianapolis, Ind.) and six-month old Wistar rats were used in this study. They were allowed ad libitum access to chow and water and were on a 12 h light, 12 h dark cycle (lights on 0700 h). The bedding for the Zucker rats was a paper based product, “Carefresh” (Absorption Co., Belingham, Wash.). The Zucker rats were fasted on wire, in the absence of bedding, overnight before the experiment. Wistar rats were fasted on their normal bedding. General anaesthesia was induced by an intraperitoneal injection of pentobarbital (50 mg/kg).

[8] = tested on: fasted, diabetic Zucker rats; assay: Duration of in vivo insulinotropic action after intraperitoneal peptide; parameters: species or system rat; conditions: 0.4 nmol/kg i.p.
Description: The time-dependent duration of insulinotropic action was evaluated by quantifying plasma insulin and glucose levels in Zucker rats following intraperitoneal (i.p.) peptide administration. Specifically, after overnight fasting, diabetic male rats, approximately 400 g weight, were anesthetized with 50 mg/kg pentobarbital and a catheter was tied into their right femoral artery for blood collection. […] Blood, taken prior to peptide administration, at 30 and 60 min, and at 2, 4, 6 and 24 h, was drawn into heparinized tubes containing EDTA and aprotinin for insulin determination, and a separate sample was taken to measure glucose. Plasma was separated, removed and immediately frozen to −70° C. Thereafter insulin levels were quantified by using a rat insulin ELISA kit (Crystal Chem Inc., Chicago, Ill.) and plasma glucose was quantified by the glucose oxidase method.

“peptide 36: exendin-4 with arginine in position 36 and position 30 modified from glutamic acid to alanine (SEQ ID NO:33) (HGEGTFTSDLSKQMEEEAVREFIAWLKNGR; not fully specified)” was tested, and the “induction of insulin secretion” value (RIN 1048-36 cells) was “well tolerated”.

In the case of “peptide 8: GLP-1 with A to G substitution at position 8 and V to L at position 16 (SEQ ID NO:5) (HGEGTFTSDLSSYLEGQAAKEFIAWLVKGR)”, the “induction of insulin secretion” value (RIN 1048-36 cells) is reported as “retained the ability to induce insulin secretion; also recorded: substantially greater effect on insulin secretion than either GLP-1 or exendin-4”.

“peptide 15: truncation of exendin-4 including residues up to and including residue 43 (SEQ ID NO:12)” was tested, and the “induction of insulin secretion” value (RIN 1048-36 cells) was “inducing effect that exceeded that of exendin-4 or GLP-1”.

“peptide 9: GLP-1 with A/G, V/L, S/K, Y/Q, L/M substitutions at position 8, 16, 18, 19, 20 (SEQ ID NO: 6) (HGEGTFTSDLSKQMEGQAAKEFIAWLVKGR)” was tested, and the “induction of insulin secretion” value (RIN 1048-36 cells) was “retained the ability to induce insulin secretion; also recorded: restores activity”.

In the case of `O=S(=O)(NCCNC/C=C/c1ccc(Br)cc1)c1cccc2cnccc12` [H89], the “effect on GLP-1, exendin-4 or NGF induced neurite outgrowth” value (“effect” for short) (PC12 cells [1]) is reported as “some inhibitory effects on GLP-1 and NGF-induced neurite outgrowth”.

With nerve growth factor [NGF] the “reduction of Aβ1-40 levels compared to vehicle” value (Aβ1-40 [2]) was 40%, the “maximal decrease in synaptophysin expression relative to control cells” value (synaptophysin) was “approximately 70%” and the synaptophysin expression (synaptophysin; relative to untreated) was “dramatically reduced the expression of the synaptophysin protein”. The “Aβ1-40 levels in conditioned media” value (Aβ1-40 [3]) was “significant increases in Aβ1-40 levels”, the “increase in neurite projections from controls” value (PC12 cells [4]; NGF 10 ng/ml) was 550% and the “increase in neurite projections from controls” value (PC12 cells [4]; NGF 30 ng/ml) was 720%. For the same compound, the “intracellular levels of βAPP (cell lysates)” value [5] was “dramatic increases in intracellular levels of βAPP” and the “increased incorporation of BrdU relative to untreated” value (PC12 cells [6]) was 9%.

For “peptide 30: peptide 1 with neutral serine replaced by basic lysine in position 18 (SEQ ID NO:27) (HGEGTFTSDVSKYLEGQAAKEFIAWLVKGR)”, the “induction of insulin secretion” value (RIN 1048-36 cells) was “loss of activity”.

With `COc1cccc(-c2cc(=O)c3ccccc3o2)c1N` [PD98059] the “effect” value (PC12 cells [1]) was “reduced GLP-1 and exendin-4 induced neurite outgrowth”.

With exendin (9-39) the “effect” value (PC12 cells [1]) was “failed to initiate neurite extension”.

In the case of `CC[C@H](C)[C@H](NC(=O)[C@H](Cc1ccccc1)NC(=O)[C@H](CCC(=O)O)NC(=O)[C@H](CCCCN)NC(=O)[C@H](C)NC(=O)[C@H](C)NC(=O)[C@H](CCC(N)=O)NC(=O)CNC(=O)[C@H](CCC(=O)O)NC(=O)[C@H](CC(C)C)NC(=O)[C@H](Cc1ccc(O)cc1)NC(=O)[C@H](CO)NC(=O)[C@H](CO)NC(=O)[C@@H](NC(=O)[C@H](CC(=O)O)NC(=O)[C@H](CO)NC(=O)[C@@H](NC(=O)[C@H](Cc1ccccc1)NC(=O)[C@@H](NC(=O)CNC(=O)[C@H](CCC(=O)O)NC(=O)CNC(=O)[C@@H](N)Cc1c[nH]cn1)[C@@H](C)O)[C@@H](C)O)C(C)C)C(=O)N[C@@H](C)C(=O)N[C@@H](Cc1c[nH]c2ccccc12)C(=O)N[C@@H](CC(C)C)C(=O)N[C@H](C(=O)N[C@@H](CCCCN)C(=O)NCC(=O)N[C@@H](CCCNC(=N)N)C(N)=O)C(C)C` [GLP-1 Gly^8], the “hypoglycemia in Zucker rats” value ([7]; fasted Zucker fatty rats) is reported as “drop in blood glucose into the hypoglycemic range”, the blood glucose ([7]; fasted rats, monitored 8 h) is reported as “rapidly lowered blood glucose” and the “potency on plasma insulin versus equimolar standard” value [8] is reported as “more potent than equimolar GLP-1”. The “induction of insulin secretion” value (RIN 1048-36 cells) was “induced insulin secretion slightly more than exendin-4”.
